The text below walks through data of patent publication US8501936B2 (priority 2009, dated 2013).

The target of one experiment is human JAK2 (Homo sapiens (Human), UniProt O60674). The settings on record: read-out: JAK2 IC50.
In the next experiment the target is human FAK (Homo sapiens (Human), UniProt Q05397). The following applies: read-out: FAK IC50.
Sequence of human FAK (Q05397 whole entry): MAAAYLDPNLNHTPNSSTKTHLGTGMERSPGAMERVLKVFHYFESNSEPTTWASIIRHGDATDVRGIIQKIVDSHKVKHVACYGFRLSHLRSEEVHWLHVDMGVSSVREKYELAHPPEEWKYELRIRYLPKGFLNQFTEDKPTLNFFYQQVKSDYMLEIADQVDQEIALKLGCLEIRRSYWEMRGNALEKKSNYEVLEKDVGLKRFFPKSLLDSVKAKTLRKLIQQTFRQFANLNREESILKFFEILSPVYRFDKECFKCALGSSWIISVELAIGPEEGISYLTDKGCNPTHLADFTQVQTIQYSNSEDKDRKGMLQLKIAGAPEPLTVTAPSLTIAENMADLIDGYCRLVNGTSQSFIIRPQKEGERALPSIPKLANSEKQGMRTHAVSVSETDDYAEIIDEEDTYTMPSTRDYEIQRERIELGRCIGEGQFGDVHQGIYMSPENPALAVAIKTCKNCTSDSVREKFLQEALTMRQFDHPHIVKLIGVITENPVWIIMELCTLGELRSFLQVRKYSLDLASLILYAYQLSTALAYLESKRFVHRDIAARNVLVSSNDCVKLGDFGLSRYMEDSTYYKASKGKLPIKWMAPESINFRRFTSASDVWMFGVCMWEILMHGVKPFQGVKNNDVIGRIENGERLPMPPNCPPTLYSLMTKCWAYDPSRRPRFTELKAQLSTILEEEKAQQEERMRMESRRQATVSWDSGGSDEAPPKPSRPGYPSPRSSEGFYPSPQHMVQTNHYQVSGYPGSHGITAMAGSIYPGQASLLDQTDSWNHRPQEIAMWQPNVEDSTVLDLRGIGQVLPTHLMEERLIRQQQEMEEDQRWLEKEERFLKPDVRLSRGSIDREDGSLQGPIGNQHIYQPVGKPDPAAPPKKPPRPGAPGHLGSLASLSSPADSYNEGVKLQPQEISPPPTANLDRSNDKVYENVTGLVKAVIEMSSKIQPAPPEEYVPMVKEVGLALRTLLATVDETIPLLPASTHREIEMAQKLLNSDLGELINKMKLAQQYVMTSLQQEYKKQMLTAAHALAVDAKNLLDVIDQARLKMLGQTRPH

Sequence of human JAK2 (O60674 815-1132): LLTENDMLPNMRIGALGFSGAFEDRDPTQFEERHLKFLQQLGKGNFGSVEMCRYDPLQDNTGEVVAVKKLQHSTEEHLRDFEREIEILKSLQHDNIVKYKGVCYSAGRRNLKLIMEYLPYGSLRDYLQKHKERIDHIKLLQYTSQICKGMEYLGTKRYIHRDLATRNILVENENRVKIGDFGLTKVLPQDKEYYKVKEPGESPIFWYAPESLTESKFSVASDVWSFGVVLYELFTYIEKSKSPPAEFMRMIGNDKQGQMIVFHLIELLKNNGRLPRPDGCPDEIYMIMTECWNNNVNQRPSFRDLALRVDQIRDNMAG

For `c1ccc(Nc2nc3ccccn3n2)cc1` [Example 1, Phenyl-[1,2,4]triazolo[1,5-a]pyridin-2-yl-amine], at human JAK2, the IC50 came to 1090 nM.

On to `c1cc(-c2ccncc2)c2nc(Nc3ccc(OCCN4CCCC4)cc3)nn2c1` [Example 15, (8-pyridin-4-yl-[1,2,4]triazolo[1,5-a]pyridin-2-yl)-[4-(2-pyrrolidin-1-yl-ethoxy)-phenyl]-amine], for which the half-inhibitory concentration (IC50) at human JAK2 came to 3000 nM.

Consider `CS(=O)(=O)c1ccc(-c2cccn3nc(Nc4ccc(N5CCCCC5)cc4)nc23)cc1` [Example 18, [8-(4-Methanesulfonyl-phenyl)-[1,2,4]triazolo[1,5-a]pyridin-2-yl]-(4-piperidin-1-yl-phenyl)-amine], for which, at human JAK2, the IC50 was 0.6 nM.

For `COc1ccc(Nc2nc3c(-c4ccc(S(C)(=O)=O)cc4)cccn3n2)cc1` [Example 19, [8-(4-Methanesulfonyl-phenyl)-[1,2,4]triazolo[1,5-a]pyridin-2-yl]-(4-methoxy-phenyl)-amine], the half-inhibitory concentration (IC50) on human FAK was found to be 1580 nM.

As for `CS(=O)(=O)c1ccc(-c2cccn3nc(Nc4ccc(N5CCC(N6CCOCC6)CC5)cc4)nc23)cc1` [Example 49, [8-(4-Methanesulfonyl-phenyl)-[1,2,4]triazolo[1,5-a]pyridin-2-yl]-[4-(4-morpholin-4-yl-piperidin-1-yl)-phenyl]-amine], the IC50 on human FAK was found to be 251 nM.

Take `CN1CCN(c2ccc(Nc3nc4c(-c5ccc(S(=O)(=O)N(C)C)cc5)cccn4n3)cc2)CC1` [Example 54, N,N-Dimethyl-4-{2-[4-(4-methyl-piperazin-1-yl)-phenylamino]-[1,2,4]triazolo[1,5-a]pyridin-8-yl}-benzenesulfonamide]: on human FAK, the IC50 was 787 nM.

For the compound `CS(=O)(=O)c1ccccc1Nc1nc2c(Nc3ccccc3S(C)(=O)=O)cccn2n1` [Example 69, N(2),N(8)-Bis-(2-methanesulfonyl-phenyl)-[1,2,4]triazolo[1,5-a]pyridine-2,8-diamine], the IC50 at human FAK came to 6500 nM.

Take `CS(=O)(=O)c1cccc(-c2cccc3nc(Nc4ccc(CN5CCOCC5)cc4)nn23)c1` [Example 87, [5-(3-Methanesulfonyl-phenyl)-[1,2,4]triazolo[1,5-a]pyridin-2-yl]-(4-morpholin-4-ylmethyl-phenyl)-amine]: the IC50 at human FAK worked out at 341 nM.

As to `CN1CCN(c2cncc(Nc3nc4cncc(-c5ccc(S(C)(=O)=O)cc5)n4n3)c2)CC1` [Example 108, [5-(4-Methanesulfonyl-phenyl)-[1,2,4]triazolo[1,5-a]pyrazin-2-yl]-[5-(4-methyl-piperazin-1-yl)-pyridin-3-yl]-amine], the IC50 at human FAK is 3370 nM.

On to `CN1CCN(c2ccc(Nc3nc4c(Nc5cccc(S(C)(=O)=O)c5)cccn4n3)cc2)CC1` [Example 109, N(8)-(3-Methanesulfonyl-phenyl)-N(2)-[4-(4-methyl-piperazin-1-yl)-phenyl]-[1,2,4]triazolo[1,5-a]pyridine-2,8-diamine], for which the IC50 at human FAK turned out to be 10000 nM.

For the compound `CN1CCN(c2ccc(Nc3nc4c(-c5cccc(N(C)S(C)(=O)=O)c5)cccn4n3)cc2)CC1` [Example 127, N-Methyl-N-(3-{2-[4-(4-methyl-piperazin-1-yl)-phenylamino]-[1,2,4]triazolo[1,5-a]pyridin-8-yl}-phenyl)-methanesulfonamide], the IC50 at human FAK was determined as 3130 nM.

Take `CN1C(=O)Cc2cc(Nc3nc4c(NCc5cccnc5N(C)S(C)(=O)=O)cccn4n3)ccc21` [Example 146, N-Methyl-N-(3-{[2-(1-methyl-2-oxo-2,3-dihydro-1H-indol-5-ylamino)-[1,2,4]triazolo[1,5-a]pyridin-8-ylamino]-methyl}-pyridin-2-yl)-methanesulfonamide]: at human FAK, the IC50 was 106 nM.

As for `CN1CCN(c2cccc(Nc3nc4c(NCc5ccccc5N(C)S(C)(=O)=O)cccn4n3)c2)CC1` [Example 148, N-Methyl-N-[2-({2-[3-(4-methyl-piperazin-1-yl)-phenylamino]-[1,2,4]triazolo[1,5-a]pyridin-8-ylamino}-methyl)-phenyl]-methanesulfonamide], on human FAK, the IC50 was 14.6 nM.

For the compound `CN1CCC(c2ccc(Nc3nc4c(NCc5ccccc5CN(C)S(C)(=O)=O)cccn4n3)cc2)CC1` [Example 159, N-Methyl-N-[2-({2-[4-(1-methyl-piperidin-4-yl)-phenylamino]-[1,2,4]triazolo[1,5-a]pyridin-8-ylamino}-methyl)-benzyl]-methanesulfonamide], the IC50 at human FAK came out at 538 nM.

Turning to `CN1CCN(c2ccc(Nc3nc4c(NCC5CCCN5S(C)(=O)=O)cccn4n3)cc2)CC1` (stereo not shown) [Example 170, N(8)-(1-Methanesulfonyl-pyrrolidin-2-ylmethyl)-N(2)-[4-(4-methyl-piperazin-1-yl)-phenyl]-[1,2,4]triazolo[1,5-a]pyridine-2,8-diamine], the IC50 on human FAK was determined as 872 nM.

As for `CS(=O)(=O)c1ccc(-c2cccn3nc(Nc4cccc(C5CCNCC5)c4)nc23)cc1` [Example 182, [8-(4-Methanesulfonyl-phenyl)-[1,2,4]triazolo[1,5-a]pyridin-2-yl]-(3-piperidin-4-yl-phenyl)-amine], the IC50 at human FAK came to 1000 nM.

For `CS(=O)(=O)CCN1CCC(c2cccc(Nc3nc4c(-c5ccc(S(C)(=O)=O)cc5)cccn4n3)c2)CC1` [Example 190, {3-[1-(2-Methanesulfonyl-ethyl)-piperidin-4-yl]-phenyl}-[8-(4-methanesulfonyl-phenyl)-[1,2,4]triazolo[1,5-a]pyridin-2-yl]-amine], at human FAK, the half-maximal inhibitory concentration (IC50) turned out to be 580 nM.

With `CCN1CCN(c2cccc(Nc3nc4c(-c5ccc(S(C)(=O)=O)cc5)cccn4n3)c2)C(=O)C1` [Example 205, 4-Ethyl-1-{3-[8-(4-methanesulfonyl-phenyl)-[1,2,4]triazolo[1,5-a]pyridin-2-ylamino]-phenyl}-piperazin-2-one], the IC50 at human FAK is 10000 nM.

In the case of `CCn1cc(Nc2nc3c(-c4ccc(C(F)(F)F)cc4)cccn3n2)cn1` [Example 215, (1-Ethyl-1H-pyrazol-4-yl)-[8-(4-trifluoromethyl-phenyl)-[1,2,4]triazolo[1,5-a]pyridin-2-yl]-amine], on human FAK, the IC50 is 10000 nM.

As to `COc1cc(C(F)(F)F)ccc1-c1cccc2nc(Nc3ccc4c(c3)CCN(CCS(C)(=O)=O)CC4)nn12` [Example 238], the IC50 on human FAK amounted to 1950 nM.

For the compound `FC1(F)Oc2cccc(-c3cccn4nc(Nc5ccc6c(c5)CCNCC6)nc34)c2O1` [Example 244, [8-(2,2-difluoro-1,3-benzodioxol-4-yl)-[1,2,4]triazolo[1,5-a]pyridin-2-yl]-(2,3,4,5-tetrahydro-1H-3-benzazepin-7-yl)amine], at human FAK, the IC50 is 6500 nM.

Take `CN1CCN(c2ccc(Nc3nc4c(OCc5cccc(Cl)c5)cccn4n3)cc2)CC1` [Example 260, [8-(3-Chloro-benzyloxy)-[1,2,4]triazolo[1,5-a]pyridin-2-yl]-[4-(4-methyl-piperazin-1-yl)-phenyl]-amine]: at human FAK, the IC50 was determined as 1100 nM.

For the compound `CN1CCN(c2cccc(Nc3nc4c(OCc5ccccc5C#N)cccn4n3)c2)CC1` [Example 263, 2-{2-[3-(4-Methyl-piperazin-1-yl)-phenylamino]-[1,2,4]triazolo[1,5-a]pyridin-8-yloxymethyl}-benzonitrile], the IC50 on human FAK came to 3000 nM.

Take `Fc1ccc(C(F)(F)F)cc1-c1cccn2nc(Nc3ccc4c(c3)CCNCC4)nc12` [Example 270, [8-(2-Fluoro-5-trifluoromethyl-phenyl)-[1,2,4]triazolo[1,5-a]pyridin-2-yl]-[2,3,4,5-tetrahydro-1H-benzo[d]azopin-7-yl]-amine]: the IC50 on human FAK came to 6500 nM.

Turning to `O=c1[nH]cccc1-c1cccn2nc(Nc3ccc4ncccc4c3)nc12` [Example 276, 3-[2-(Quinolin-6-ylamino)-[1,2,4]triazolo[1,5-a]pyridin-8-yl]-1H-pyridin-2-one], the IC50 on human FAK was determined as 10000 nM.

Take `CN(C)C(=O)CN1CCC(c2ccc(Nc3nc4c(-c5cnn(-c6ccc(F)cc6)c5)cccn4n3)cc2)CC1` [Example 283, 2-[4-(4-{8-{1-(4-Fluoro-phenyl)1H-pyrazol-4-yl}-[1,2,4]triazolo[1,5-a]pyridine-2-ylamino}-phenyl)-piperidin-1-yl]-N,N-dimethyl-acetamide]: the IC50 on human FAK turned out to be 1370 nM.

`CC(C)Oc1ccccc1-c1cccn2nc(Nc3ccc4c(c3)CCNCC4)nc12` [Example 299, [8-(2-Isopropoxy-phenyl]-[1,2,4]triazolo[1,5a]pyridine-2-yl]-(2,3,4,5-tetrahydro-benzo[d]azepin-7-yl)-amine]: the IC50 at human FAK was 999 nM.

For the compound `CC(C)Oc1ccc(C(F)(F)F)cc1-c1cccn2nc(Nc3ccc4c(c3)CCN(CC(=O)N(C)C)CC4)nc12` [Example 326, 2-{7-[8-(2-Isopropoxy-5-trifluoromethyl-phenyl)-[1,2,4]triazolo[1,5-a]pyridin-2-ylamino]-1,2,4,5-tetrahydro-3-benzazepin-3-yl}-N,N-dimethyl-acetamide], the IC50 at human FAK turned out to be 5500 nM.

For `COc1cccc(-c2cccn3nc(Nc4ccc5c(c4)CNC5)nc23)c1` [Example 346, (2,3-Dihydro-1H-isoindol-5-yl)-[8-(3-methoxy-phenyl)-[1,2,4]-triazolo[1,5-a]pyridin-2-yl]-amine], the IC50 at human FAK turned out to be 999 nM.

On to `FC(F)COc1ccccc1-c1cccn2nc(Nc3ccc4c(c3)CCNCC4)nc12` [Example 367, {8-[2-(2,2-Difluoro-ethoxy)-phenyl]-[1,2,4]triazolo[1,5-a]pyridin-2-yl}-(2,3,4,5-tetrahydro-1H-3-benzazepin-7-yl)-amine], for which the IC50 at human FAK came to 1910 nM.

Take `CC(C)COc1ccc(C(F)(F)F)cc1-c1cccn2nc(Nc3ccc4c(c3)CCNCC4)nc12` [Example 379, [8-(2-Isobutoxy-5-trifluoromethyl-phenyl)-[1,2,4]triazolo[1,5-a]pyridin-2-yl]-(2,3,4,5-tetrahydro-1H-3-benzazepin-7-yl)-amine]: on human FAK, the IC50 was determined as 3000 nM.

In the case of `COc1cccc(CNc2cccn3nc(Nc4ccncc4)nc23)c1` [Example 399, N(8)-(3-Methoxy-benzyl)-N(2)-pyridin-4-yl-[1,2,4]triazolo[1,5-a]pyridine-2,8-diamine], at human FAK, the IC50 worked out at 10000 nM.

With `COc1ccccc1CNc1cccn2nc(Nc3ccncc3)nc12` [Example 401, N(8)-(2-Methoxy-benzyl)-N(2)-pyridin-4-yl-[1,2,4]triazolo[1,5-a]pyridine-2,8-diamine], the IC50 at human FAK is 6500 nM.

As for `COc1ccc(C(F)(F)F)cc1-c1cccn2nc(Nc3cccc(C4CCN(CC(=O)N(C)C)CC4)c3)nc12` [Example 410], on human FAK, the IC50 was 658 nM.
